# Assay results published in patent US6673802B2, “Compounds specific to adenosine A3 receptor and uses thereof” (OSI Pharmaceuticals, Inc., priority 2000, dated 2004).
# How the values were obtained:
# [1] = biological target: T1, human A2a receptor subtype (Homo sapiens, UniProt P29274); assay: Adenosine 2a receptor subtype competition radioligand binding ([3H]CGS-21680, HEK293 membranes); settings: Table 13; probably % activity @ 10 μM (footnote 8)
# T1 construct: purchased Receptor Biology (Beltsville, Md.) RB-HA2a
# T1 sequence (P29274 whole entry): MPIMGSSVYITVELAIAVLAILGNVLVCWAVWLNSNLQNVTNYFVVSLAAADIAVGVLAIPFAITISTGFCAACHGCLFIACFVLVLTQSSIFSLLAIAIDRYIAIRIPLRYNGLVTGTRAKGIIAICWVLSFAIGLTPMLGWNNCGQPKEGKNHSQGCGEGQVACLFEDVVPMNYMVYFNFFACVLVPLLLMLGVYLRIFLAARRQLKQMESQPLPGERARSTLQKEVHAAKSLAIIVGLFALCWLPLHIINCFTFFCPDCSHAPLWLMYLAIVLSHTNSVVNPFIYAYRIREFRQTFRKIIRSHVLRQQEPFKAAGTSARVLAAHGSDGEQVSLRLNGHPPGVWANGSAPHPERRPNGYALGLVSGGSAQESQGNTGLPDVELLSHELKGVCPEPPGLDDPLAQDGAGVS
# A1 adenosine receptor = A1 adenosine receptor (Homo sapiens, UniProt P30542); settings: cited from earlier work
# Sequence of A1 adenosine receptor (P30542 whole entry): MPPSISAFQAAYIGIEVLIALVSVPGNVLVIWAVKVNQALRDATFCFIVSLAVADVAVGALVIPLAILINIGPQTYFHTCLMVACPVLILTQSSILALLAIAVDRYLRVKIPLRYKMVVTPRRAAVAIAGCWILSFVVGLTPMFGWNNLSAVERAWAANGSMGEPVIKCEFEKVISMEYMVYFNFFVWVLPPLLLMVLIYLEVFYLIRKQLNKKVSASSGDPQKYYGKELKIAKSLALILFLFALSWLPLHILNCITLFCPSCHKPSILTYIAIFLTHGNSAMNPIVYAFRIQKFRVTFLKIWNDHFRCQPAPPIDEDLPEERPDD
SMILES,melting point [°C],also measured
CNC(=O)NCCCNc1nc(-c2ccccc2)nc2[nH]c(C)c(C)c12 [Compound 1310],,"A2a, value printed as % [1]: 76%"
"CC(Cc1ccccc1)Nc1ncnc2c1ncn2[C@@H]1O[C@H](CO)[C@@H](O)[C@H]1O (single isomer, unassigned; (-)) [PIA, (−)-N6-(2-phenylisopropyl)-adenosine]",,reported affinity (A1 adenosine receptor): approximately 50 nM
"CC(=O)NCCNc1nc(-c2ccccc2)nc2[nH]c(COc3ccccc3)cc12 [Example 17, 4-(2-acetylaminoethyl)amino-6-phenoxymethyl-2-phenyl-7H-pyrrolo[2,3d]pyrimidine]",196 to 197,
"c1ccc(-c2nc(NCCc3cnc[nH]3)c3cc[nH]c3n2)cc1 [Compound 1720, [2-(3H-Imidazol-4-yl)-ethyl]-(2-phenyl-7H-pyrrolo[2,3-d]pyrimidin-4-yl)-amine]",234 to 235,
